Source: US20250388597A1, “BIFUNCTIONAL PHOTOCROSSLINKING PROBES FOR COVALENT CAPTURE OF PROTEIN-NUCLEIC ACID COMPLEXES IN CELLS” (UNIVERSITY OF SOUTHERN CALIFORNIA, priority 2022, published 2025)
“Also recorded” adds a separate entry of the source.

What was measured:
DNA binding by NFAT1 = biological target: T1, DNA binding by NFAT1 (Homo sapiens, UniProt Q13469); experiment: Native EMSA of the effect on DNA binding by NFAT1; format: biochemical
T1 construct: human NFAT1 protein (residue 399-676, NFAT1-DBD)
T1 sequence (Q13469 399-676): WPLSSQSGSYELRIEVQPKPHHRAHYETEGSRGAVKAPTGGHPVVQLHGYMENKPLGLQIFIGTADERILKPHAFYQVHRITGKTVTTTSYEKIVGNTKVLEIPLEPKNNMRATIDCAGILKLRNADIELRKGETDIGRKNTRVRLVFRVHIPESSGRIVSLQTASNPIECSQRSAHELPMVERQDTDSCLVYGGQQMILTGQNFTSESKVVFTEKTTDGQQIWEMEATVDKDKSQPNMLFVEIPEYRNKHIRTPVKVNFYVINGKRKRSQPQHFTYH
Method: All binding reactions contain 10 μM 27 mer dsDNA (5′6-FAM labeled) with a NFAT-binding site, and various combinations of NFAT1 protein (14 μM), FA (1% v/v), 4AMT-LC-SDA (20 μM), with or without UV illumination (365 nm, LED, 30 Watt, sample distance 2 cm, exposure time 15 min at 4 degree C.). 10 μl of the binding reaction is run on a 10% PAGE 0.5×TBE gel. The same gel was visualized by FAM fluorescence for DNA (top) and by Coomassie blue stain for protein (bottom). The higher smearing bands in lane 3, 8, 9, and 10 are most likely non-specific protein complexes often seen when an excessive amount of protein is used to ensure all DNA is bound.
The binding reactions were performed in a buffer of 20 mM Hepes pH 7.6, 150 mM NaCl, 1 mM DTT, 12% glycerol. Typically protein and DNA are mixed to bind at room temperature for 30 min, followed by addition of BFPX probes for an additional 15 min and then UV illumination. In the case of FA treatment, the reaction time is 10 min at room temperature and then quenched by 250 mM glycine. When included (as indicated by a positive sign), the binding reaction contains 10 μM 27 mer dsDNA (Cy5-labeled) with a NFAT-binding site (the antigen receptor response element 2, ARRE2, from the IL-2 promoter, 5′-Cy5-[sequence]-3′ (SEQ ID NO: 2), the complementary strand is not labeled), 24 μM of the DNA binding domain (DBD) of human NFAT1 protein (residue 399-676, NFAT1-DBD). The UV illumination (as indicated by a positive sign) was carried out using a LED Chip (21.4 mm×21.4 mm, 365-370 nm, 30 Watt, sample distance 2 cm, exposure time 2-15 min at 4 degree C., here the exposure time is 15 min). Half of the binding reaction (7.5 μl) was run on a 10% PAGE 0.5×TBE gel and visualized by Cy5 fluorescence on DNA. The small amount of single stranded DNA is due to incomplete annealing. The higher smearing bands are most likely non-specific protein complexes. Neither of these experimental imperfections affected the main conclusion of this experiment because the double stranded-DNA bands and the specific NFAT-DNA complex bands (the middle sharp bands) are well defined and can be monitored without the interference of the other bands.
The presence of both DNA and protein in the same shifted band can be checked by the FAM fluorescence signal (top) and Coomassie stain (bottom), respectively (free NFAT is positively charged and not observable under the EMSA condition).

NFAT1/DNA complex = biological target: T2, NFAT1/DNA complex (Homo sapiens, UniProt Q13469); experiment: In vitro photo-crosslinking of assembled NFAT1/DNA complex, denaturing SDS gel; format: biochemical
T2 construct: human NFAT1 protein (residue 399-676, NFAT1-DBD)
T2 sequence (Q13469 399-676): T1 sequence (Q13469 399-676)
Method: The probe binding and UV crosslinking were carried out as described in FIG. 5G and FIG. 7. The crosslinked complexes (lane 3 and lane 6) were further treated with DTT (100 mM, heat 50 degree C. for 30 min). The reaction mixtures were run on SDS gel and visualized by FAM fluorescence for DNA (top) and by Coomassie blue stain for protein (bottom) as described in FIG. 7. FIG. 7 depicts denaturing SDS gel analysis of covalent capture of in vitro assembled MEF2/DNA and NFAT1/DNA complexes by the BFPX probe, SPB-AAD. […] The protein/DNA complexes are incubated at room temperature for 30 min, and treated with various combination of BFPX probe (SPB-AAD) and UV illumination as described in FIG. 5G. […] The reaction mixtures were added SDS loading dye (2% SDS), boil for 10 min, and run on SDS gel (Bio-Rad Any Kd gradient gel). The same gel was visualized by FAM fluorescence for DNA (top) and by Coomassie blue stain for protein (bottom). FIG. 8C depicts denaturing SDS gel analysis of covalent capture of in vitro assembled MEF2/DNA and NFAT1/DNA complexes by the BFPX probe, SPB-PEG3-AAD. […] The reaction mixtures were run on SDS gel and visualized by FAM fluorescence for DNA (top) and by Coomassie blue stain for protein (bottom) as described in FIG. 7. […] Typically protein and DNA are mixed to bind at room temperature for 30 min, followed by addition of BFPX probes for an additional 15 min and then UV illumination. In the case of FA treatment, the reaction time is 10 min at room temperature and then quenched by 250 mM glycine. […] The UV illumination (as indicated by a positive sign) was carried out using a LED Chip (21.4 mm×21.4 mm, 365-370 nm, 30 Watt, sample distance 2 cm, exposure time 2-15 min at 4 degree C., here the exposure time is 15 min). […] The small amount of single stranded DNA is due to incomplete annealing. The higher smearing bands are most likely non-specific protein complexes. Neither of these experimental imperfections affected the main conclusion of this experiment because the double stranded-DNA bands and the specific NFAT-DNA complex bands (the middle sharp bands) are well defined and can be monitored without the interference of the other bands. […] The gel was visualized by Cy5 fluorescence for DNA. FIG. 12E depicts further characterization of BFPX crosslinking of NFAT1/DNA complexes using different DNA substrates and staining techniques. Two unlabeled DNA substrates containing a core NFAT-binding site and different flanking bases and sequence lengths ([…] ID NO: 4), 21 mer, c2: [NT] ID NO: 5), 16 mer) were used to bind the NFAT1-DBD as described in FIG. 12C. […] The reactions were then analyzed by SDS PAGE under denaturing condition as described in FIG. 12D. Because the DNA is unlabeled, the gel was stained using either cyanine-based dye (SYBR Safe) or Coomassie Blue stain (CB). […] The different size of the NFAT-c1DNA complexes (lane 2) and NFAT-c2DNA complexes (lane 4) was resolved by loading reactions of lane 2 (2a, 2b and 2c) and lane 4 (4a, 4b and 4c) as triplicates side-by-side on the same gel (lower panel) using either SYBR and CB stain. FIG. 12F depicts time course of BFPX crosslinking of NFAT1/DNA complexes. […] The reactions at different time points were then analyzed on SDS gel as described in FIG. 12D. […] When the UV exposure time is longer than 5 min, a significant amount of crosslinked NFAT-DNA complex can be formed with UV illumination without SPB-AAD.

GM12878 cell lines = experiment: Crosslinking in suspension GM12878 cell lines, electrophoresis after sonication; format: cell-based; conditions: compared to the no-probe or no-UV controls; FIG. 5F
Description: For this, we tested the prototype BFPX probe 4AMT-LC-SDA in the suspension GM12878 cell lines.

MEF2A/DNA complex = biological target: T3, MEF2A/DNA complex (Homo sapiens, UniProt Q02078); experiment: In vitro photo-crosslinking of assembled MEF2/DNA complex, read on denaturing SDS/urea gel or agarose gel; format: biochemical; conditions: for selectivity for DNA binding protein versus non-DNA binding protein BSA: BSA under the same condition; for formation of covalent MEF2/DNA crosslinked complex: probe + UV, denaturing gel
T3 construct: human MEF2A DBD (residues 2-95); made in house
T3 sequence (Q02078 2-95): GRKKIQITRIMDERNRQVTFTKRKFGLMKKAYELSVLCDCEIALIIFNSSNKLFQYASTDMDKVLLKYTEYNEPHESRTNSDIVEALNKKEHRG
Description: In vitro assays have confirmed the success and the efficiency of the demo probe (AMT-LC-SDA) in crosslinking double strand DNA of various contents and DNA-binding protein human myocyte enhancer factor 2A (MEF2A) (1-95 aa) (FIG. 5C-FIG. 5E). The solid crosslinking is confirmed for the probe with UV photo crosslinking conditions by denaturing or digestive approaches such as running with 8.3 M urea gel, SDS gel, combined with sample with overnight digestion of proteinase K at 65 Celsius and denatured at high temperature of 95 Celsius with SDS loading dye. […] Under these harsh evaluation conditions, the protein got digested on the crosslinking complex thoroughly, yet the remaining crosslinked amino acids residuals still have made the DNA to be in a larger size and shifted clearly compared to other controls, which is indicated by the bold shaped arrow. Agarose gel was also used for its bigger pore size to estimate the crosslinking efficiency (UV 2 hrs), estimated by the amount of the left free DNA, our probe has reached around 30-60% efficiency (FIG. 5E), which is much higher than the UV-initiated protein DNA crosslinking without the use of a probe (10-20%) as reported in Nature Communications, volume 11, Article number: 3019 (2020). […] This further supports the idea of applying this probe for replacement of formaldehyde, it crosslinks the protein only within the proximity of nucleic acids, thereby largely reducing the random protein-protein crosslinking noise and helps to preserve the native state of protein epitopes.
The BFPX probe 4AMT-LC-SDA was synthesized with good yield by the NHS-amine chemistry using psoralen and diazirine derivatives (FIG. 5A, FIG. 5B). To test its photo crosslinking ability, human transcription factor MEF2A (the MADS-box/MEF2 domain) and double strand DNA containing a MEF2 binding site were used. We first used electrophoresis mobility shift assay (EMSA) to validate the activity of the purified recombinant MEF2A DNA-binding domain. After finding out the optimal protein to DNA ratio, the in vitro assembled MEF2/DNA complex was then subject to photocrosslinking in the presence or absence of the 4AMT-LC-SDA probe with or without UV illumination. Multiple other control experiments were carried out in parallel to test the specificity of photocrosslinking between the DNA and MEF2. Specifically, parameters such as protein/DNA amounts (1:[…]), ratio, UV time (10 m to 4 hrs), wavelength (320 to 360 nm), LV source (mercury long lamp, LED) and their distance to the reaction mixture have been optimized along the course. The MEF2 Protein and DNA were incubated first to mimic an in vivo binding mode and stoichiometry, and then the mixture was incubated with our 4AMT-LC-SDA probe to undergo UV illumination. The results were evaluated by running denaturing gels (SDS in FIG. 5D, or Urea in FIG. 5C) against the high temperature denatured reaction mixtures and checking the respective protein (silver stain) or DNA (FAM label) signals. To further rule out any other possible false positiveness during loading, proteinase K digestion was applied to all the samples including the negative controls with SDS at 65 degrees.

effect on the DNA binding by NFAT1 (DNA binding by NFAT1; FIG. 5G, FA 1% v/v, 4AMT-LC-SDA 20 μM with or without UV 365 nm): did not affect
effect on NFAT1 protein (DNA binding by NFAT1; with and without UV365, data not shown): did not affect NFAT1 protein
effect of DTT treatment on the crosslinked NFAT-DNA complex (NFAT1/DNA complex; 25 μM probe, DTT 100 mM, 50 degree C., 30 min, FIG. 5H): little effect
photo crosslinking efficiency of the MEF2-DNA complex (MEF2A/DNA complex; agarose gel, comparison of band intensities): around 50%
crosslinking efficiency, estimated by the amount of the left free DNA (MEF2A/DNA complex; agarose gel, UV 2 hrs, dsDNA + MEF2A (1-95 aa)): 30-60%
Compound: Cc1oc2c(C)c3oc(=O)cc(C)c3cc2c1CNC(=O)CCCCCNC(=O)CCC1(C)N=N1 [4AMT-LC-SDA]
formation of covalent NFAT1/DNA crosslinked complex stable under denaturing SDS-PAGE (NFAT1/DNA complex; probe + UV 365 nm, 2% SDS, boil 10 min): highly efficient crosslinking; also recorded: crosslinked NFAT to its DNA substrate efficiently
crosslink effect in cells (GM12878 cell lines): good crosslink effect
selectivity for DNA binding protein versus non-DNA binding protein BSA (MEF2A/DNA complex): did not show any signs of forming crosslink with the DNA
selectivity for DNA binding protein versus non-DNA binding protein BSA (MEF2A/DNA complex; listed as AMT-LC-SDA): only MEF2A sample shows consumption of DNA substrate by crosslinking
formation of covalent MEF2/DNA crosslinked complex (MEF2A/DNA complex): successful photo crosslink complex between protein and DNA; also recorded: highly efficient crosslinking
formation of covalent MEF2/DNA crosslinked complex (MEF2A/DNA complex; listed as AMT-LC-SDA): the crosslinking of protein and nucleic acids takes place
